Reference: US8017611B2, “Pyridine and pyrazine derivatives -083” (AstraZeneca AB, priority 2007, dated 2011)
Marks after values point to notes of the source that are not given here.

Biological target: T1, recombinant Axl tyrosine kinase (Homo sapiens, UniProt P30530)
T1 construct: encompassing amino acids 473 to 894 of Axl; GST (N); made in house; host or cells: SF126 insect cells
T1 sequence (P30530 473-894): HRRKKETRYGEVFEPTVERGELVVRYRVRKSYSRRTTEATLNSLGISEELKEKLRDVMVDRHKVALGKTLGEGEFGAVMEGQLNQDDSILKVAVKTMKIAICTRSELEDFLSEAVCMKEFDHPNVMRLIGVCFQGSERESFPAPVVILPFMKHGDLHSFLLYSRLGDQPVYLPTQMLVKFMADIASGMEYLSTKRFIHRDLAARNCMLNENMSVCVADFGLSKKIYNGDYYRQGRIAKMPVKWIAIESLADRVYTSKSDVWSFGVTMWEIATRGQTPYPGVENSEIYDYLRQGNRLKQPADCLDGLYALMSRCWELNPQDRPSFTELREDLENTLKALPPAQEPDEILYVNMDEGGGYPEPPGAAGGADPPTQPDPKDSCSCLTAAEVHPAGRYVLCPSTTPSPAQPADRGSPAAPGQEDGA
Assay: In vitro Axl kinase assay (AlphaScreen), Test (a)
Assay type: biochemical
Details: 1 μM; mean calculated from a larger number of replicates than the first value

Row | Structure (SMILES) | % Axl tyrosine kinase inhibition at 1 μM concentration (second value, †)
1 | Nc1ncc(-c2cccc(N3CCOCC3)c2)cc1-c1nc2ncccc2o1 [Example 10A.1] | 52.6%
2 | Nc1ncc(-c2cccc(N3CCOCC3)c2)cc1-c1nc2cnccc2o1 [Example 8A.4] | 86.6%

Same assay, conditions: test compound at 1 μM; first value quoted

Row | Structure (SMILES) | % Axl tyrosine kinase inhibition at 1 μM concentration
3 | COCCOc1ccc(-c2cnc(N)c(-c3nc4ccccc4o3)c2)cc1 [Example 2.9] | 40.3%
4 | Nc1ncc(-c2cnn(CCCN3CCC3)c2)cc1-c1nc2ccccc2o1 [Example 31.6] | 99.7%
5 | Nc1ncc(-c2ccc(C(=O)N3CC[C@H](N4CCCC4)C3)cc2)cc1-c1nc2cccnc2o1 [Example 45A.22] | 97.1%
6 | CN1CCC(n2cc(-c3cnc(N)c(-c4nc5ccc(F)c(F)c5o4)c3)cn2)CC1 [Example 41.16] | 98.3%
7 | C[C@@H]1CN(CCNC(=O)c2ccc(-c3cnc(N)c(-c4nc5cccnc5o4)c3)cc2)C[C@H](C)O1 [Example 45A.45] | 93.8%
8 | CN1CCC(n2cc(-c3cnc(N)c(-c4nc5ncccc5o4)c3)cn2)CC1 [Example 41.4] | 99.8%
9 | CCS(=O)(=O)c1ccc(-c2cnc(N)c(-c3nc4ccccc4o3)c2)cc1 [Example 2.1] | 93.7%
10 | CNC1CCN(C(=O)c2ccc(-c3cnc(N)c(-c4nc5cccnc5o4)c3)cc2)C1 (centres unmarked) [Example 45A.80] | 99.7%
11 | Nc1ncc(-c2cnn(CCN3CCC(O)CC3)c2)cc1-c1nc2ccccc2o1 [Example 31.9] | 99.8%
12 | CNCCCNC(=O)c1ccc(-c2cnc(N)c(-c3nc4cccnc4o3)c2)cc1 [Example 45A.81] | 99.6%
13 | Nc1ncc(-c2cccc(CN3CCCC3)c2)cc1-c1nc2ncccc2o1 [Example 10A.7] | 95.9%
14 | N#CCc1ccc(-c2cnc(N)c(-c3nc4cnccc4o3)c2)cc1 [Example 8A.16] | 99.4%
15 | Nc1ncc(-c2ccc(C(=O)N3CCC4(CCCNC4)CC3)cc2)cc1-c1nc2cccnc2o1 [Example 45A.87] | 77.4%
16 | Nc1ncc(-c2cccc(CN3CCCC3)c2)cc1-c1nc2ccncc2o1 [Example 11A.5] | 97.4%
17 | Nc1ncc(-c2ccc(C(=O)N3CCCNCC3)cc2)cc1-c1nc2cccnc2o1 [Example 45A.82] | 98.4%
18 | Nc1ncc(-c2ccc(C(=O)N3CCC[C@H](N)C3)cc2)cc1-c1nc2cccnc2o1 [Example 45A.88] | 99.8%
19 | COc1cc(-c2cnc(N)c(-c3nc4ncccc4o3)c2)ccc1OCCN1CCN(C)CC1 [Example 43C.7] | 99.1%
20 | Nc1ncc(-c2cnn(C3CCNCC3)c2)cc1-c1nc2cccc(F)c2o1 [Example 38.3] | 100.0%
21 | Nc1ncc(-c2ccc(C(=O)NC[C@@H]3CCCN3)cc2)cc1-c1nc2cccnc2o1 [Example 45A.90] | 98.9%
22 | N#CCC1(n2cc(-c3cnc(N)c(-c4nc5ccccc5o4)c3)cn2)CCNCC1 [Example 25.1] | 95.0%
23 | Nc1ncc(-c2cccc(N3CCCCC3)c2)nc1-c1nc2ccccc2o1 [Example 20.4] | 89.2%
24 | Nc1ncc(-c2cccc(N3CCOCC3)c2)cc1-c1nc2ncccc2o1 [Example 10A.1] | 55.3%
25 | CN1CCCC(Oc2ccc(-c3cnc(N)c(-c4nc5ncccc5o4)c3)cc2)C1 (centres unmarked) [Example 43B.9] | 98.2%
26 | CC(C)c1ccc2nc(-c3cc(-c4cnn(C5CCN(C)CC5)c4)cnc3N)oc2c1 [Example 7.4] | 99.6%
27 | COc1cc(-c2cnc(N)c(-c3nc4ncccc4o3)c2)ccc1OCCCN [Example 43C.27] | 99.4%

Row | Structure (SMILES) | % Axl tyrosine kinase inhibition at 1 μM concentration
28 | Nc1ncc(-c2ccc3[nH]ncc3c2)cc1-c1nc2ccccc2o1 [Example 2.23] | 87.2%
29 | CN1CCC(Oc2ccc(-c3cnc(N)c(-c4nc5ncccc5o4)c3)cc2)C1 (centres unmarked) [Example 43B.4] | 99.3%
30 | Nc1ncc(-c2cnn(CCN3CCCC3)c2)cc1-c1nc2ccccc2o1 [Example 27.3] | 96.4%
31 | Cc1nn(C2CCNCC2)c(C)c1-c1cnc(N)c(-c2nc3ccccc3o2)c1 [Example 29.8] | 88.7%
32 | COCc1nn(C2CCN(C)CC2)cc1-c1cnc(N)c(-c2nc3cccc(OC)c3o2)c1 [Example 41.43] | 100.0%
33 | Cc1ccc2nc(-c3cc(-c4cnn(C5CCN(C)CC5)c4)cnc3N)oc2c1 [Example 7.9] | 99.7%
34 | Nc1ncc(-c2cccc(N3CCOCC3)c2)cc1-c1nc2cnccc2o1 [Example 8A.4] | 89.8%
35 | Nc1ncc(-c2cccc(CN3CCOCC3)c2)nc1-c1nc2ccccc2o1 [Example 20.10] | 99.1%
36 | Nc1ncc(-c2cnn(CCN3CCC[C@@H]3CO)c2)cc1-c1nc2ccccc2o1 [Example 31.8] | 99.7%
37 | COc1cc(-c2cnc(N)c(-c3nc4ncccc4o3)c2)ccc1OC1CCCNC1 (centres unmarked) [Example 43C.26] | 99.6%
38 | COc1cccc2nc(-c3cc(-c4cnn(C5CCN(C)CC5)c4)cnc3N)oc12 [Example 41.27] | 100.0%
39 | Nc1ncc(-c2ccc(C(=O)NCCN3CCCCC3)cc2)cc1-c1nc2cccnc2o1 [Example 45A.56] | 98.9%
40 | Nc1ncc(-c2ccc3c(c2)OCO3)cc1-c1nc2ccccc2o1 [Example 2.42] | 15.8** %
41 | Nc1ncc(-c2cccc(C(=O)NC3CC3)c2)cc1-c1nc2ccncc2o1 [Example 11A.7] | 80.3%
42 | CN(C)c1cccc(-c2cnc(N)c(-c3nc4ccccc4o3)c2)c1 [Example 2.50] | 90.0%
43 | CO[C@H](C)C(=O)N1CCC(n2cc(-c3cnc(N)c(-c4nc5ncccc5o4)c3)cn2)CC1 [Example 59.2] | 98.1%
44 | COCCN1CCC(NC(=O)c2ccc(-c3cnc(N)c(-c4nc5cccnc5o4)c3)cc2)CC1 [Example 45A.10] | 97.5%
45 | COc1cc(-c2cnc(N)c(-c3nc4ncccc4o3)c2)ccc1OC1CCCNCC1 (centres unmarked) [Example 43C.38] | 99.8%
46 | Nc1ncc(-c2ccc(C(=O)NCCN3CCCC3)cc2)cc1-c1nc2cccnc2o1 [Example 45A.55] | 98.9%
47 | Nc1ncc(-c2ccc(C(=O)NCCN3CCNCC3)cc2)cc1-c1nc2cccnc2o1 [Example 45A.83] | 98.9%
48 | COc1cc(-c2cnc(N)c(-c3nc4ncccc4o3)c2)ccc1OCC#CCN1CCS(=O)(=O)CC1 [Example 43C.20] | 98.1%
49 | CN1CCC(n2cc(-c3cnc(N)c(-c4nc5cc(F)ccc5o4)c3)cn2)CC1 [Example 7.1] | 99.9%
50 | Cc1nn(C2CCN(C)CC2)cc1-c1cnc(N)c(-c2nc3c(C#N)cccc3o2)c1 [Example 41.40] | 99.2%
51 | CN1CCCC(NC(=O)c2ccc(-c3cnc(N)c(-c4nc5cccnc5o4)c3)cc2)C1 (centres unmarked) [Example 45A.19] | 98.7%

Same assay, conditions: test compound at 1 μM; first value quoted; read-out: % Axl tyrosine kinase inhibition at 1 μM concentration

Row | Structure (SMILES) | inhibition at 1 µM
52 | Cc1c(-c2cnc(N)c(-c3nc4ccccc4o3)c2)cnn1C1CCNCC1 [Example 24, 3-(1,3-benzoxazol-2-yl)-5-[5-methyl-1-(4-piperidyl)pyrazol-4-yl]pyridin-2-amine] | 100%
53 | CN(C)Cc1ccc(-c2cnc(N)c(-c3nc4ccccc4o3)c2)cc1 [Example 1, 3-Benzoxazol-2-yl-5-[4-(dimethylaminomethyl)phenyl]pyridin-2-amine] | 99.8%
54 | CC(C)(C)OC(=O)N1CCC(n2cc(-c3cnc(N)c(-c4nc5ccccc5o4)c3)cn2)CC1 [Example 2.2, tert-butyl 4-[4-[6-amino-5-(1,3-benzoxazol-2-yl)-3-pyridyl]pyrazol-1-yl]piperidine-1-carboxylate] | 99.5%
55 | CN1CCN(CCn2cc(-c3cnc(N)c(-c4nc5ccccc5o4)c3)cn2)CC1 [Example 30, 3-(1,3-benzoxazol-2-yl)-5-[1-[2-(4-methylpiperazin-1-yl)ethyl]pyrazol-4-yl]pyridin-2-amine] | 99.8%
56 | C[N+]1([O-])CCC(n2cc(-c3cnc(N)c(-c4nc5ccccc5o4)c3)cn2)CC1 (centres unmarked) [Example 12, 3-(1,3-Benzoxazol-2-yl)-5-[1-(1-methyl-1-oxido-piperidin-1-ium-4-yl)pyrazol-4-yl]pyridin-2-amine] | 90.6%
57 | CN1CCC(n2cc(-c3cnc(N)c(-c4nc5ccccc5s4)c3)cn2)CC1 [Example 16, 3-(1,3-Benzothiazol-2-yl)-5-[1-(1-methyl-4-piperidyl)pyrazol-4-yl]pyridin-2-amine] | 99.8%
58 | Nc1ncc(-c2cccc(CC(=O)O)c2)nc1-c1nc2ccc(F)cc2o1 [Example 50, 2-[3-[5-amino-6-(6-fluoro-1,3-benzoxazol-2-yl)pyrazin-2-yl]phenyl]acetic acid] | 47.6%

Same assay, conditions: test compound at 30 μM

Row | Structure (SMILES) | % of Axl tyrosine kinase activity inhibited at a concentration of 30 μM
59 | Nc1ncc(-c2ccc3c(c2)OCO3)cc1-c1nc2ccccc2o1 [Example 2.42] | **the compound disclosed in Example 2.42 inhibited 53.6% of Axl tyrosine kinase activity at a concentration of 30 μM.
